Laboratory results taken from article PMC4872661 (Journal of molecular recognition : JMR, 2011).

Target: DAFP-1
Test: Hummel-Dreyer size-exclusion HPLC, Klotz plot
Assay type: binding, Dendroides canadensis
Conditions: 0.10 M Na2SO4, 0.05% NaN3, 0.10 M NaPi, pH 7.00, ambient temperature; 1:1 stoichiometry

- Kd: 280 ± 20 nM
SMILES: NC(=O)C1=CN([C@@H]2O[C@H](COP(=O)(O)OP(=O)(O)OC[C@H]3O[C@@H](n4cnc5c(N)ncnc54)[C@H](O)[C@@H]3O)[C@@H](O)[C@H]2O)C=CC1 [NADH, β-nicotinamide adenine dinucleotide, reduced]
